From patent publication US20180282279A1, “Pantothenamide Analogues” (Radboud Universitair Medisch Centrum, priority 2014, published 2018)

Tests used:
[1] = tested on: P. falciparum gametocytes; experiment: Gametocyte female gametogenesis capacity assay (Pfs25 AlphaLISA); format: cell-based; conditions: Plasmodium falciparum, 72 hours incubation
Procedure: To monitor compound effects on the ability of a gametocyte to form a female gamete, day 11 (stage IV) gametocytes were seeded at a density of 4×10^5 gametocytes per well in a V-bottom plate in 50 μl culture medium. 50 μl of diluted compound was added to the gametocytes (0.1% DMSO final concentration) and plates were incubated for 72 hours at 37° C., 98% humidity, 93% N2, 4% CO2 and 3% O2. Subsequently, gametogenesis was induced by adding xanthurenic acid to a final concentration of 40 μM and plates were incubated for 16 hours at 20° C. Gametes were detected in a homogeneous proximity immunoassay on basis of Pfs25 expression by use of AlphaLISA technology (Perkin Elmer). All steps were performed at 20° C. Gametes were washed twice with PBS, lysed for 15 min in 10 μl 10 mM Tris pH 8.0/1% laurylsarcosyl/1 mM phenylmethanesulfonyl fluoride and combined with 10 μl 5 nM biotinylated mouse anti-Pfs25 monoclonal antibody 32F6244 in a white 384 well optiplate (Perkin Elmer). After 1 hour incubation 15 μl of 33 μg/ml acceptorbeads coated with mouse anti-Pfs25 monoclonal antibody 32F81 were added. After 1 hour incubation, 15 μl 33 μg/ml Streptavidin-conjugated donorbeads were added. Finally, after 1 hour incubation luminescence signals were monitored at the 615 nm emission wavelength following excitation at 680 nm using a fluorometer (Biotek Synergy 2). All compounds were tested in duplicate (24 hr) or triplicate (1 and 72 hr). Controls included MIN (0.1 μM epoxomicin) and MAX (0.1% DMSO). Data were analyzed by logistic regression using the formula: Y=Bottom+(Top−Bottom)/(1+10̂((Log IC50−X)*HillSlope)) and a least squares method to find the best fit.

[2] = tested on: Plasmodium falciparum NF54 parasites; experiment: P. falciparum asexual blood stage replication assay (SYBR Green); format: cell-based; conditions: NF54, 10% human serum, 72 incubation
Procedure: Compounds were tested on their ability to inhibit replication of the human malaria parasite Plasmodium falciparum. To this end, Plasmodium falciparum NF54 parasites were cultured in RPMI1640 medium supplemented with 367 μM hypoxanthine, 25 mM HEPES, 25 mM sodiumbicarbonate and 10% human type A serum in an automated large-scale culture system as described before (Transactions of the Royal Society of Tropical Medicine and Hygiene, 1982. 76: p. 812-818). Compounds were diluted in DMSO and subsequently in culture medium to reach a DMSO concentration of 0.2%. 50 μl of diluted compound was transferred to a black 96 well plate. A culture of P. falciparum strain NF54 malaria parasites was diluted to a parasitaemia of 0.5% and a hematocrit of 3%. 50 μl of this diluted culture was added to each well in the 96 well plate._The outermost wells of the plate were filled with sterile water to prevent evaporation. The established antimalarial dihydroartemisinin (DHA) in DMSO acted as a positive control (MIN signal), and 0.1% DMSO acted as a negative control (MAX signal). The plates were incubated for 72 at 37° C., 3% 02, 5% CO2, 93% N2. Changes in parasite replication relative to the controls were monitored using the DNA-marker SYBR Green as described previously (Antimicrob Agents Chemother 48:1803-6). Data were analyzed by logistic regression using the formula: Y=Bottom+(Top-Bottom)/(1+10̂((Log IC50−X)*HillSlope)) and a least squares method to find the best fit.
Using similar methods, IC50 values were determined for a variety of inverted pantothenamides, as listed in table 1 (see section: ‘Detailed description of the invention’)

[3] = tested on: P. falciparum gametocytes; experiment: microbe, parasite or virus in culture; format: cell-based, Plasmodium falciparum; conditions: for IC50: 72 hour incubation, read-out: Gametocyte viability (pLDH) IC50; for effect on gametocyte viability (pLDH activity): FIG. 4A; for extent of inhibition of gametocyte viability: compared with reference compound DHA
Procedure: Compounds were tested for their ability to affect the viability of gametocytes, the sexually committed blood stages of P. falciparum that underlie transmission to the mosquito vector. To this end, two different assays were performed. The first assay monitored pLDH activity as a measure of viability of gametocytes (J Antimicrob Chemother. 2013 September; 68(9):2048-58). The second assay monitored the ability of gametocytes to form a female gamete by detection of the gamete-specific marker Pfs25. Plasmodium falciparum NF54 parasites were cultured in RPMI1640 medium supplemented with 367 μM hypoxanthine, 25 mM HEPES, 25 mM sodiumbicarbonate and 10% human type A serum in an automated large-scale culture system as described before (Transactions of the Royal Society of Tropical Medicine and Hygiene, 1982. 76: p. 812-818). Cultures were treated with 50 mM N-acetyl-D-glucosamine from day 4 till day 9 to kill asexual parasites. On day 11 gametocytes were isolated by discontinuous 63% Percoll gradient centrifugation. Compounds were diluted in DMSO and subsequently in culture medium to reach a DMSO concentration of 0.2%. To measure the effect of compounds of pLDH activity, gametocytes were seeded at a density of 3.5×10^4 gametocytes per well in a black 384 well plate in 30 μl of culture medium, and 30 μl of diluted compound was added. Following a 72 hour incubation at 37° C., 98% humidity, 93% N2, 4% CO2 and 3% O2, gametocyte viability was measured by a modified plasmodium lactate dehydrogenase assay by using resazurin as a substrate as previously described (Nature, 2013. 504(7479): p. 248-53). Assays were performed in quadruplicate (two different plates with two different gametocyte batches) and all plates included controls MIN (1 μM DHA), MAX (0.1% DMSO) and a serial dilution of reference compound dihydroartemisinin (DHA).

[4] = tested on: P. falciparum asexual blood stage parasites; experiment: Asexual replication assay in competition with pantothenate; format: cell-based, Plasmodium falciparum; conditions: log dose ratio −1 vs log pantothenate concentration
Procedure: FIG. 3: Competition between pantothenic acid and inverted-amide pantothenamide. Asexual replication assays were performed in combinations of pantothenic acid (PA) and CXP18.6-017 (A), CXP18.6-026 (B) and CXP18.6-052 (C). The relative number of parasites was determined by a Sybrgreen DNA detection method. Data are expressed relative to the MAX (0.1% DMSO) and MIN (10 μM DHA) controls. Error bars indicate standard deviations from two independent observations. D) S child regression analysis of combinations of CXP18.6-052 and pantothenic acid.
To study their interaction with pantothenate-dependent pathways, asexual replication assays were performed with CXP18.6-017, CXP18.6-026 and CXP18.6-052 in the presence of increasing amounts pantothenate. When combining a pantothenamide analogue and pantothenate in the same well the conditions were otherwise similar to the single compound assays described above, however the final DMSO concentration was 0.2%, which was also adjusted for the positive and negative controls.

[5] = Table 3, read-out: Gametocyte gametogenesis capacity (Pfs25) IC50
[6] = FIG. 4B, read-out: female gametogenesis capacity of gametocytes IC50

Row | Structure (SMILES) | IC50 [1, 5] | IC50 [2] | IC50 ([3]; Plasmodium falciparum) | IC50 [1, 6] | effect on gametocyte viability (pLDH activity) [3] | extent of inhibition of gametocyte viability [3] | Schild regression analysis with pantothenate [4] | maximum inhibition of gametocyte viability ([3]; Plasmodium falciparum, 72 h)
1 | CC(C)(CO)[C@@H](O)C(=O)NCCNC(=O)CCc1ccccc1 [CXP18.6-006] | 478 nM | 0.12 µM | > 10000 nM | – | – | – | – | –
2 | CC(C)(CO)[C@@H](O)C(=O)NCCNC(=O)CCc1ccccc1F [CXP18.6-017] | 36 nM | 0.022 µM | 100 nM | 37 nM | dose dependently reduced gametocyte viability | to the same extent as the reference compound DHA | did not reveal a linear correlation | –
3 | Cc1ccc(CCC(=O)NCCNC(=O)[C@H](O)C(C)(C)CO)cc1 [CXP18.6-026] | 13 nM | 0.16 µM | 170 nM | 13 nM | dose dependently reduced gametocyte viability | to the same extent as the reference compound DHA | did not reveal a linear correlation | –
4 | CC(C)(CO)[C@@H](O)C(=O)NCCNC(=O)CCc1cccnc1 [CXP18.6-052] | – | 0.008 µM | – | 1970 nM | dose dependently reduced gametocyte viability | – | competitive antagonism | ~50%
